One data set concerns β-lactamase enzyme RTEM. The following applies: cited from earlier work.
The next data set in a line: Storage stability. The format is physicochemical. The note with it: 23° C., seven days.
A short description of another data set: Hygroscopicity. The following applies: solid. It is filed as physicochemical.
The nature of data set [1]: in vivo. The note with it: mouse, po, 38 mg/kg.
The test system of another data set is E. coli A9675. As to the kind of experiment: Therapeutic efficacy of BL-P2043, BL-P2044 and components, oral, infected mice (Table 13). The format is in vivo. The note with it: Escherichia coli, A9675, po, read-out: PD50/Treatment.
The next data set deals with B. thetaiotaomicron. As to the kind of experiment: Anti-Bacteroides activity, MIC by agar dilution (Table 2). It is filed as cell-based. The following applies: A22279, beta-lactamase +. Here is the method:
*Minimum inhibitory concentration (MIC) determined by the agar dilution
method using 50X dilutions of 24 hour cultures as inocula dispensed by th
Steer's inoculator. Assay medium composed of Brucella Agar plus 5% laked
sheep blood and 10 mcg/ml vitamin K.
A general note: Agar dilution tests growth on a series of plates holding different concentrations.

Another data set deals with E. aerogenes. As to the kind of experiment: Antibacterial activity of ceforanide alone and with BL-P2013, MIC (Table 11). The format is cell-based. The following applies: Klebsiella aerogenes, read-out: MIC. From the text:
(§1) ^a Geometric mean value where applicable.

The next data set deals with S. marcescens. The data set is described as above. The following applies: geometric mean. It is filed as cell-based.
Excerpt: as §1

For another data set, the system named is M. morganii. The data set is described as above. The format is cell-based. The following applies: 8 strains (second line), geometric mean.
Excerpt: as §1

The next data set deals with Citrobacter sp. The data set is described as above. It is filed as cell-based. The following applies: 1 strain, read-out: MIC.
Excerpt: as §1

Another data set relates to P. aeruginosa. The data set is described as above. It is filed as cell-based. The note with it: Pseudomonas aeruginosa; 16 strains, geometric mean; read-out: MIC.
Excerpt: as §1

A further data set relates to C. freundii. The description is as above. The format is cell-based. The note with it: Citrobacter freundii; 1 strain; read-out: MIC.
Excerpt: as §1

A further data set has as its system P. stuartii. The data set is described as above. The format is cell-based. The note with it: Providencia stuartii.
Excerpt: as §1

Data set [2] in a line: in vivo. The following applies: mouse, po, 38 mg/kg. The text has this: Compounds were solubilized in propylene glycol, except for the Hetacillin
The source holds these as a separate data set.

Data set [3] has as its system β-lactamase-producing bacteria. As to the kind of experiment: Protection of ceforanide and amoxicillin from destruction. The note with it: in vitro and in vivo, in combination.
The conditions of data set [4]: mouse, in vivo, po, 38 mg/kg.
The test system of the next data set is Bacteroides species. As to the kind of experiment: Anti-Bacteroides activity, MIC by agar dilution (Table 2). The format is cell-based.
Data set [5] can be described thus: Blood levels after oral administration to mice (Table 4). It is filed as in vivo. The note with it: 100 mg/kg oral, 15 min, assay S. aureus A-9606.

Read-outs that look alike come from different tables or passages of the source.

Take `CC1(C)[C@H](C(=O)O)N2C(=O)[C@@H](Br)[C@H]2S1(=O)=O` [(2S,5R,6S)-6β-Bromo-3,3-dimethyl-7-oxo-4-thia-1-azabicyclo[3.2.0]heptane-2-carboxylic acid, S,S-dioxide]: the “inhibition of β-lactamase” value in the data set with β-lactamase enzyme RTEM is “inhibit the action of the β-lactamase enzyme RTEM”.

Regarding `CC1(CCl)C(C(=O)O)N2C(=O)CC2S1(=O)=O` (stereo not drawn) [BL-P2013 Free Acid, 2β-chloromethyl-2α-methylpenam-3α-carboxylic acid sulfone], in the data set “Storage stability”, the stability on storage result is “unstable when stored at 23 °C for seven days”. Further, the hygroscopicity entry in “Hygroscopicity” is reported as “hydroscopic”.

Usually AUC stands for the area under the concentration-time curve, a measure of exposure. The term MIC denotes the lowest concentration found to suppress growth. Regarding `CC1(CCl)C(C(=O)O)N2C(=O)CC2S1(=O)=O` (stereo not drawn) [BL-P2013, Potassium 2β-Chloromethyl-2α-methylpenam-3α-carboxylate Sulfone], the AUC in the data set “in vivo [1]” (AUC) and in “in vivo [2]” was 4400 ng·h/mL in each case. The concentration at 0.5 h in “in vivo [1]” (Blood Level) and in the data set “in vivo [2]” was 2300 ng/mL throughout. For the same compound, the ED50 in the data set with E. coli A9675 is over 50 mg/kg. Moreover, the minimal inhibitory concentration (MIC) was 63 µg/mL with B. thetaiotaomicron; 16 µg/mL in the data set with E. aerogenes (1 strain); over 125 µg/mL in the data set with E. aerogenes (4 strains, geometric mean); over 125 µg/mL in the data set with E. aerogenes (5 strains, geometric mean); 125 µg/mL against S. marcescens (6 strains); 125 µg/mL in the data set with S. marcescens (Serratia marcescens, 10 strains, read-out: MIC). The minimum inhibitory concentration (MIC) against M. morganii is over 125 µg/mL; in the data set with Citrobacter sp., 16 µg/mL; in the data set on P. aeruginosa, 125 µg/mL; in the data set with C. freundii, over 125 µg/mL; with P. stuartii (1 strain), 125 µg/mL; against P. stuartii (4 strains, geometric mean), 125 µg/mL. Also, the MIC against Bacteroides species (A20927-1, beta-lactamase -) stood at 63 µg/mL; with Bacteroides species (A20933, beta-lactamase +), 63 µg/mL. In addition, in “in vivo [2]”, the concentration at 2 h was found to be 1600 ng/mL. Further, the “protection of ceforanide and amoxicillin from destruction by β-lactamase-producing bacteria” value in data set [3] was “protected ceforanide and amoxicillin from destruction by β-lactamase-producing bacteria in vitro and in vivo”. Moreover, the “Blood Level” value in data set [4] (0.5 h) turned out to be 1800 ng/mL; in data set [4] (1 h) it was 1400 ng/mL; in [5], 4600 ng/mL.

(Values after US4380512A, “2β-Chloromethyl-2α-methylpenam-3α-carboxylic acid sulfone and salts and esters thereof” (Bristol-Myers Company, priority 1981, dated 1983).)
